System: Cl^− channel
Assay: Whole-cell Cl^− current recording (patch-clamp) in rat cardiac myocytes
Assay type: cell-based
Conditions: rat left ventricle cardiac myocytes, currents measured at plateau level, 30 μM nifedipine in bath
From the text: FIG. 4: Channels with 3 different current types were found. (A) A small-conductance inwardly rectifying channel (ClSIR). (B) A large-conductance inwardly rectifying channel (ClLIR). (C) An outwardly rectifying channel (ClOR). For each type of channel, a family of currents at different voltages (on the left side of the panels), current-voltage characteristics (on the top right side of the panels) and channel densities at different surface positions (on the bottom right side of the panels) are shown. The mean reversal potential was −31.2±2.4 mV (n=5) for (A)−31.8±3.4 mV (n=5) for (B) and −33.5±3.0 mV (n=4) for (C). (D) Calculated whole-cell current extrapolated from single-channel currents. (E) Current-voltage characteristics of experimental whole-cell currents obtained from 22 cells (black circles). […] Currents were measured at plateau level.
Left ventricle cells from the rat myocardium were isolated as previously described (Harding et al, J. Mol. Cell Cardiol. 20:635–647, 1988). Cells were allowed to attach to polystyrene cell culture dishes filled with bath solutions.
the bath solution contained (in mM) K-glutamate 120, KCl 25, MgCl2 2, CaCl2 1, EGTA 2, glucose 10 and HEPES 10, adjusted to pH 7.4 with CsOH. The pipette backfill solution contained N-methyl-D-glucamine-Cl (NMDG-Cl) 108, HEPES 5, glucose 5.5 and EGTA 1, adjusted to pH 7.4 with TEA-OH. […]

Compound | Block of experimental whole-cell Cl^− currents (1 mM, n=5) | Block of experimental whole-cell Cl^− currents (300 μM, n=12)
[Cd+2] [Cd^2+] | almost completely blocked | 
CC(=O)Nc1ccc(C=Cc2ccc(N=C=S)cc2S(=O)(=O)O)c(S(=O)(=O)O)c1 [SITS, stilbene disulfonate] |  | partially blocked

From patent US7057171B2, “Patch-clamping and its use in analyzing subcellular features” (priority 2001, dated 2006)
